Results on 17 compounds are retold here after ChEMBL document CHEMBL4417631, “Oral peptide inhibitors of interleukin-23 receptor and their use to treat inflammatory bowel diseases” (2017).

SMILES strings stand for the structures. Where a SMILES comes first, the peptide text is derived from it. [ ]: non-standard residue; d: D form. Phe(3,4-(OMe)2) = COc1ccc(C[C@H](N)C(=O)O)cc1OC; Phe(4-CONH2) = NC(=O)c1ccc(C[C@H](N)C(=O)O)cc1; 2Nal = N[C@@H](Cc1ccc2ccccc2c1)C(=O)O; AEF = NCCOc1ccc(C[C@H](N)C(=O)O)cc1; Pen = CC(C)(S)[C@H](N)C(=O)O; αMeV = CC(C)[C@](C)(N)C(=O)O; Aib = CC(C)(N)C(=O)O

In the test the target is T1, Interleukin-23 receptor (Homo sapiens, UniProt Q5VWK5).
T1 sequence (Q5VWK5 whole entry): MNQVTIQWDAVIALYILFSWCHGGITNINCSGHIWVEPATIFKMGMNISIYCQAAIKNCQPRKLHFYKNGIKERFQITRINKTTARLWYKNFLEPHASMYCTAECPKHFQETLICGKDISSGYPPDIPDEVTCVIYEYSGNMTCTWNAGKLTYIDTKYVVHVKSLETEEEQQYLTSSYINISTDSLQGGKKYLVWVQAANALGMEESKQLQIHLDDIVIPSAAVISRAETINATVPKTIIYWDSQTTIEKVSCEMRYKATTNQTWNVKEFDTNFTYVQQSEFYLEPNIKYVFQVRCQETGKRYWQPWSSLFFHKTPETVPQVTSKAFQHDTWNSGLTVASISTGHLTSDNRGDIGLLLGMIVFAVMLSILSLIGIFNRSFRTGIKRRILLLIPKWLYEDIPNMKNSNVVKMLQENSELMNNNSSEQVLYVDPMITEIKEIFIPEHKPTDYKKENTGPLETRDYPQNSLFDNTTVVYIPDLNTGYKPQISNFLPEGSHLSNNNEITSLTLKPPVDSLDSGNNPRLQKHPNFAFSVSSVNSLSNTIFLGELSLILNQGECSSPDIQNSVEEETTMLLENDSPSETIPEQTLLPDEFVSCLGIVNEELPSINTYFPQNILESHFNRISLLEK
The test is described as follows: Inhibition of interleukin-23 receptor in human DB cells assessed as reduction in IL-23-stimulated STAT3 phosphorylation incubated for 30 mins by HTRF assay. Type of test: cell-based.
For the compound `COc1ccc(C[C@H](NC(=O)[C@@H](NC(=O)[C@H](CCC(N)=O)NC(=O)[C@H](Cc2c[nH]c3ccccc23)NC(=O)[C@@H](NC(=O)[C@H](CC(N)=O)NC(=O)[C@@H](NC(C)=O)C(C)(C)S)[C@@H](C)O)C(C)(C)S)C(=O)N[C@@H](Cc2ccc3ccccc3c2)C(=O)NC(C)(C)C(=O)N[C@@H](CCCCNC(C)=O)C(=O)N[C@@H](CC(N)=O)C(=O)N[C@@H](C)C(N)=O)cc1`, the IC50 is below 10 nM. `CC(=O)NCCCC[C@H](NC(=O)C(C)(C)NC(=O)[C@H](Cc1ccc2ccccc2c1)NC(=O)[C@H](Cc1ccc(OCCN)cc1)NC(=O)[C@@H](NC(=O)[C@H](CCC(N)=O)NC(=O)[C@H](Cc1c[nH]c2ccccc12)NC(=O)[C@@H](NC(=O)[C@H](CCC(N)=O)NC(=O)[C@@H](NC(=O)[C@@H](CCCNC(=N)N)NC(C)=O)C(C)(C)S)[C@@H](C)O)C(C)(C)S)C(=O)N[C@@H](CC(N)=O)C(=O)N[C@@H](CC(N)=O)C(N)=O`: the IC50 was below 10 nM. With `CC(=O)NCCCC[C@H](NC(=O)C(C)(C)NC(=O)[C@H](Cc1ccc2ccccc2c1)NC(=O)[C@H](Cc1ccc(OCCN)cc1)NC(=O)[C@@H](NC(=O)[C@H](CCC(N)=O)NC(=O)[C@H](Cc1c[nH]c2ccccc12)NC(=O)[C@@H](NC(=O)[C@H](CCC(N)=O)NC(=O)[C@@H](NC(=O)[C@@H](Cc1ccccc1)NC(C)=O)C(C)(C)S)[C@@H](C)O)C(C)(C)S)C(=O)N[C@@H](CC(N)=O)C(=O)N[C@@H](CC(N)=O)C(N)=O`, the IC50 is below 10 nM. `CC(=O)NCCCC[C@H](NC(=O)C(C)(C)NC(=O)[C@H](Cc1ccc2ccccc2c1)NC(=O)[C@H](Cc1ccc(OCCN)cc1)NC(=O)[C@@H](NC(=O)[C@H](CCC(N)=O)NC(=O)[C@H](Cc1c[nH]c2ccccc12)NC(=O)[C@@H](NC(=O)[C@H](CCC(N)=O)NC(=O)[C@@H](NC(=O)[C@@H](NC(C)=O)[C@@H](C)O)C(C)(C)S)[C@@H](C)O)C(C)(C)S)C(=O)N[C@@H](CC(N)=O)C(=O)N[C@@H](CC(N)=O)C(N)=O` (Ac-T[Pen]QTWQ[Pen][AEF][2Nal][Aib]K(Ac)NN-NH2): the 50% inhibitory concentration (IC50) was below 10 nM. Turning to `CC(=O)N[C@@H](CS)C(=O)N[C@@H](CN)C(=O)N[C@H](C(=O)N[C@@H](Cc1c[nH]c2ccccc12)C(=O)N[C@@H](CCC(N)=O)C(=O)N[C@@H](CS)C(=O)N[C@@H](Cc1ccc(O)cc1)C(=O)N[C@@H](Cc1c[nH]c2ccccc12)C(=O)N[C@@H](CCCNC(=N)N)C(=O)N[C@H](C(=O)N[C@@H](Cc1ccccc1)C(=O)NCC(=O)NCCOCC(=O)N[C@H](CCCCN)C(N)=O)C(C)C)[C@@H](C)O`, the IC50 was determined as 100 nM.

Consider `COc1ccc(C[C@H](NC(=O)[C@H](Cc2ccc(C(N)=O)cc2)NC(=O)[C@@H](NC(=O)[C@H](CCC(N)=O)NC(=O)[C@H](Cc2c[nH]c3ccccc23)NC(=O)[C@@H](NC(=O)[C@H](CCC(N)=O)NC(=O)[C@@H](NC(C)=O)C(C)(C)S)[C@@H](C)O)C(C)(C)S)C(=O)N[C@](C)(C(=O)N[C@@H](CCCCNC(C)=O)C(=O)N[C@@H](CC(N)=O)C(=O)N[C@@H](CC(N)=O)C(N)=O)C(C)C)cc1OC` (Ac-[Pen]QTWQ[Pen][Phe(4-CONH2)][Phe(3,4-(OMe)2)][αMeV]K(Ac)NN-NH2), for which the IC50 was in the range of 10 to 25 nM. As to `CC(=O)NCCCC[C@H](NC(=O)C(C)(C)NC(=O)[C@H](Cc1ccc2ccccc2c1)NC(=O)[C@H](Cc1ccc(OCCN)cc1)NC(=O)[C@@H](NC(=O)[C@H](CCC(N)=O)NC(=O)[C@H](Cc1c[nH]c2ccccc12)NC(=O)[C@@H](NC(=O)[C@H](CCC(N)=O)NC(=O)[C@@H](NC(=O)[C@H](CCC(=O)O)NC(C)=O)C(C)(C)S)[C@@H](C)O)C(C)(C)S)C(=O)N[C@@H](CC(N)=O)C(=O)N[C@@H](CC(N)=O)C(N)=O` (Ac-E[Pen]QTWQ[Pen][AEF][2Nal][Aib]K(Ac)NN-NH2), the IC50 is below 10 nM.

For `COc1ccc(C[C@H](NC(=O)[C@@H](NC(=O)[C@H](CCC(N)=O)NC(=O)[C@H](Cc2c[nH]c3ccccc23)NC(=O)[C@@H](NC(=O)[C@H](CCC(N)=O)NC(=O)[C@@H](NC(C)=O)C(C)(C)S)[C@@H](C)O)C(C)(C)S)C(=O)N[C@@H](Cc2ccc3ccccc3c2)C(=O)NC(C)(C)C(=O)N[C@@H](CCCCNC(C)=O)C(=O)N[C@@H](CC(N)=O)C(=O)N[C@@H](CCC(N)=O)C(N)=O)cc1`, the IC50 was below 10 nM. `COc1ccc(C[C@H](NC(=O)[C@@H](NC(=O)[C@H](CCC(N)=O)NC(=O)[C@H](Cc2c[nH]c3ccccc23)NC(=O)[C@@H](NC(=O)[C@H](CCC(N)=O)NC(=O)[C@@H](NC(C)=O)C(C)(C)S)[C@@H](C)O)C(C)(C)S)C(=O)N[C@@H](Cc2ccc3ccccc3c2)C(=O)N[C@@H](CCC(C)C)C(=O)N[C@@H](CCCCNC(C)=O)C(=O)N[C@@H](CC(N)=O)C(=O)NCCC(N)=O)cc1`: the IC50 is below 10 nM. `COc1ccc(C[C@H](NC(=O)[C@@H](NC(=O)[C@H](CCC(N)=O)NC(=O)[C@H](Cc2c[nH]c3ccccc23)NC(=O)[C@@H](NC(=O)[C@H](CCC(N)=O)NC(=O)[C@@H](NC(C)=O)C(C)(C)S)[C@@H](C)O)C(C)(C)S)C(=O)N[C@@H](Cc2ccc3ccccc3c2)C(=O)NC(C)(C)C(=O)N[C@@H](CCCCNC(C)=O)C(=O)N[C@@H](CC(N)=O)C(=O)NCCC(N)=O)cc1`: the IC50 was below 10 nM. On to `CC(=O)NCCCC[C@H](NC(=O)C(C)(C)NC(=O)[C@H](Cc1ccc2ccccc2c1)NC(=O)[C@H](Cc1ccc(OCCN)cc1)NC(=O)[C@@H](NC(=O)[C@H](CCC(N)=O)NC(=O)[C@H](Cc1c[nH]c2ccccc12)NC(=O)[C@@H](NC(=O)[C@@H](NC(=O)[C@@H](NC(C)=O)C(C)(C)S)[C@@H](C)O)[C@@H](C)O)C(C)(C)S)C(=O)N[C@@H](CC(N)=O)C(=O)N[C@@H](CCC(N)=O)C(N)=O`, for which the IC50 is below 10 nM. As for `CC(=O)N[C@H]1CCSC[C@@H](C(=O)N[C@@H](Cc2ccc(OCCN)cc2)C(=O)N[C@@H](Cc2c[nH]c3ccc(O)cc23)C(=O)NC(C)(C)C(=O)N[C@@H](CCC(N)=O)C(=O)N[C@@H](CC(N)=O)C(=O)NCC(N)=O)NC(=O)[C@H](CCC(N)=O)NC(=O)[C@H](Cc2c[nH]c3ccccc23)NC(=O)[C@H]([C@@H](C)O)NC(=O)[C@H](CCC(N)=O)NC1=O`, the concentration for half-maximal inhibition (IC50) was 10 to 25 nM.

Consider `COc1ccc(C[C@H](NC(=O)[C@@H](NC(=O)[C@H](CCC(N)=O)NC(=O)[C@H](Cc2c[nH]c3ccccc23)NC(=O)[C@@H](NC(=O)[C@H](CCC(N)=O)NC(=O)[C@@H](NC(C)=O)C(C)(C)S)[C@@H](C)O)C(C)(C)S)C(=O)N[C@@H](Cc2ccc3ccccc3c2)C(=O)N[C@](C)(C(=O)N[C@@H](CCCCNC(C)=O)C(=O)N[C@@H](CC(N)=O)C(=O)N[C@@H](CC(N)=O)C(=O)N[C@@H](N)CCCCN)C(C)C)cc1`, for which the IC50 was below 10 nM. Turning to `CC(=O)NCCCC[C@H](NC(=O)C(C)(C)NC(=O)[C@H](Cc1ccc2ccccc2c1)NC(=O)[C@H](Cc1ccc(OCCN)cc1)NC(=O)[C@@H](NC(=O)[C@H](CCC(N)=O)NC(=O)[C@H](Cc1c[nH]c2ccccc12)NC(=O)[C@@H](NC(=O)[C@H](CCC(N)=O)NC(=O)[C@@H](NC(=O)[C@@H](CC(=O)O)NC(C)=O)C(C)(C)S)[C@@H](C)O)C(C)(C)S)C(=O)N[C@@H](CC(N)=O)C(=O)N[C@@H](CC(N)=O)C(N)=O`, the concentration for half-maximal inhibition (IC50) was below 10 nM. The same measure for `CC(=O)NCCCC[C@H](NC(=O)C(C)(C)NC(=O)[C@H](Cc1ccc2ccccc2c1)NC(=O)[C@H](Cc1ccc(OCCN)cc1)NC(=O)[C@@H](NC(=O)[C@H](CCC(N)=O)NC(=O)[C@H](Cc1c[nH]c2ccccc12)NC(=O)[C@@H](NC(=O)[C@H](CCC(N)=O)NC(=O)[C@@H](NC(=O)[C@H](CC(C)C)NC(C)=O)C(C)(C)S)[C@@H](C)O)C(C)(C)S)C(=O)N[C@@H](CC(N)=O)C(=O)N[C@@H](CC(N)=O)C(N)=O` (Ac-L[Pen]QTWQ[Pen][AEF][2Nal][Aib]K(Ac)NN-NH2): below 10 nM. The same measure for `COc1ccc(C[C@H](NC(=O)[C@@H](NC(=O)[C@H](CCC(N)=O)NC(=O)[C@H](Cc2c[nH]c3ccccc23)NC(=O)[C@@H](NC(=O)[C@H](CCC(N)=O)NC(=O)[C@@H](NC(C)=O)C(C)(C)S)[C@@H](C)O)C(C)(C)S)C(=O)N[C@@H](Cc2ccc3ccccc3c2)C(=O)NC(C)(C)C(=O)N[C@@H](CCCCNC(C)=O)C(=O)N[C@@H](CC(N)=O)C(=O)N[C@@H](C)C(N)=O)cc1`: below 10 nM; for `CC(=O)NCCCC[C@H](NC(=O)[C@@](C)(NC(=O)[C@H](Cc1ccc2ccccc2c1)NC(=O)[C@H](Cc1ccc(C(N)=O)cc1)NC(=O)[C@@H](NC(=O)[C@H](CCC(N)=O)NC(=O)[C@H](Cc1c[nH]c2ccccc12)NC(=O)[C@@H](NC(=O)[C@H](CCC(N)=O)NC(=O)[C@@H](NC(=O)[C@@H](CCCCN)NC(C)=O)C(C)(C)S)[C@@H](C)O)C(C)(C)S)C(C)C)C(=O)N[C@@H](CC(N)=O)C(=O)N[C@@H](CC(N)=O)C(N)=O`: 1000 to 10000 nM.

The IC50 is the concentration that inhibits the measured activity by half.
